Results on five molecules are retold here after ChEMBL document CHEMBL1833857, “Histone deacetylase activators: N-acetylthioureas serve as highly potent and isozyme selective activators for human histone deacetylase-8 on a fluorescent substrate” (Bioorg Med Chem Lett, 2011).

The source made the active and inactive calls. No cut-off for these calls is given here.

Assay [1] deals with T1, Histone deacetylase 8 (Homo sapiens) (UniProt Q9BY41).
T1 sequence (whole entry): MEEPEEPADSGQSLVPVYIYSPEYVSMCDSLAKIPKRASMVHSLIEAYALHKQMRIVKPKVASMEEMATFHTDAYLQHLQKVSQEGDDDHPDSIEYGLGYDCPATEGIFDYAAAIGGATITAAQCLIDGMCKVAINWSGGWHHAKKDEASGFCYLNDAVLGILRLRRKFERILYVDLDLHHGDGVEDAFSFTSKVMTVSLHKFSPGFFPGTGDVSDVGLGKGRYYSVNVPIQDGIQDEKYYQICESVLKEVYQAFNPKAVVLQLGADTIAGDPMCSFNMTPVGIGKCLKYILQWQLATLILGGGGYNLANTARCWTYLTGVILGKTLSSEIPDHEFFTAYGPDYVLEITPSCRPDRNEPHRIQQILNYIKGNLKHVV
The assay is described as follows: Activation of recombinant human HDAC8 assessed as ratio of the initial rate of reaction in the absence and presence of compound using Fluor-de-Lys as substrate at 10 uM by spectrofluorometry.

The target in assay [2] is Histone deacetylase 1 (Homo sapiens) (UniProt Q13547). In words: Inhibition of HDAC1 using Fluor-de-Lys as substrate at 100 uM by spectrofluorometry.
Chain of Histone deacetylase 1 (Homo sapiens) (Q13547 whole entry): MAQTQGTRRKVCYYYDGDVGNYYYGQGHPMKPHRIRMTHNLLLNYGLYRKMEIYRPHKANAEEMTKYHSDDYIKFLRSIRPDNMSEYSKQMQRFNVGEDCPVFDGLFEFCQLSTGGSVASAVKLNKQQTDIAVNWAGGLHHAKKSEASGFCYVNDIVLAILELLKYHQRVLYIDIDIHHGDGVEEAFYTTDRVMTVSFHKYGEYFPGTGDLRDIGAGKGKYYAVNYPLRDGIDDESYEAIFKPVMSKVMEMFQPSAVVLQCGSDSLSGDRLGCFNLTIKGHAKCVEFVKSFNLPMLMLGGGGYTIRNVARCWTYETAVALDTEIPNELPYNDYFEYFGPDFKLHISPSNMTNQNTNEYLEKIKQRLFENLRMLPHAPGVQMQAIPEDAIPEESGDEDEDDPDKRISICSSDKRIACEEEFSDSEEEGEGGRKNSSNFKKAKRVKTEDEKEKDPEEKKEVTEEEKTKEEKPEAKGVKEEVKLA
Assay [3] addresses Histone deacetylase 2 (Homo sapiens) (UniProt Q92769). The assay is described as follows: Inhibition of HDAC2 using Fluor-de-Lys as substrate at 100 uM by spectrofluorometry.
Assay [4] deals with Histone deacetylase 3 (Homo sapiens) (UniProt O15379). The assay is described as follows: Inhibition of HDAC3 using Fluor-de-Lys as substrate at 100 uM by spectrofluorometry.
Chain of Histone deacetylase 3 (Homo sapiens) (O15379 whole entry): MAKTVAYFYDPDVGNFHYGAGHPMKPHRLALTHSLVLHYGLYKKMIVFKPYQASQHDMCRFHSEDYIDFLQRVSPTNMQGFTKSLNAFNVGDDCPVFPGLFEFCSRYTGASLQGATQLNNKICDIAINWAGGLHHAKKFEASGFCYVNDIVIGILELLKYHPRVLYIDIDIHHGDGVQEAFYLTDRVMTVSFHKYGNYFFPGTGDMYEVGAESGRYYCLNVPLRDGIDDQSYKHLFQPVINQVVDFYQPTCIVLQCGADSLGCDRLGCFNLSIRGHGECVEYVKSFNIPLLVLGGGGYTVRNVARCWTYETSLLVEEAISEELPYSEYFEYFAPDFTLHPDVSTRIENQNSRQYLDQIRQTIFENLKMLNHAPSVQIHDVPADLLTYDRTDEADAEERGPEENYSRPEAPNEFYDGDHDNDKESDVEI
For assay [5], the target named is Histone deacetylase 4 (Homo sapiens) (UniProt P56524). In words: Inhibition of HDAC4 using trifluoroacetyl-lysine containing fluorogenic substrate at 100 uM by spectrofluorometry.
Chain of Histone deacetylase 4 (Homo sapiens) (P56524 whole entry): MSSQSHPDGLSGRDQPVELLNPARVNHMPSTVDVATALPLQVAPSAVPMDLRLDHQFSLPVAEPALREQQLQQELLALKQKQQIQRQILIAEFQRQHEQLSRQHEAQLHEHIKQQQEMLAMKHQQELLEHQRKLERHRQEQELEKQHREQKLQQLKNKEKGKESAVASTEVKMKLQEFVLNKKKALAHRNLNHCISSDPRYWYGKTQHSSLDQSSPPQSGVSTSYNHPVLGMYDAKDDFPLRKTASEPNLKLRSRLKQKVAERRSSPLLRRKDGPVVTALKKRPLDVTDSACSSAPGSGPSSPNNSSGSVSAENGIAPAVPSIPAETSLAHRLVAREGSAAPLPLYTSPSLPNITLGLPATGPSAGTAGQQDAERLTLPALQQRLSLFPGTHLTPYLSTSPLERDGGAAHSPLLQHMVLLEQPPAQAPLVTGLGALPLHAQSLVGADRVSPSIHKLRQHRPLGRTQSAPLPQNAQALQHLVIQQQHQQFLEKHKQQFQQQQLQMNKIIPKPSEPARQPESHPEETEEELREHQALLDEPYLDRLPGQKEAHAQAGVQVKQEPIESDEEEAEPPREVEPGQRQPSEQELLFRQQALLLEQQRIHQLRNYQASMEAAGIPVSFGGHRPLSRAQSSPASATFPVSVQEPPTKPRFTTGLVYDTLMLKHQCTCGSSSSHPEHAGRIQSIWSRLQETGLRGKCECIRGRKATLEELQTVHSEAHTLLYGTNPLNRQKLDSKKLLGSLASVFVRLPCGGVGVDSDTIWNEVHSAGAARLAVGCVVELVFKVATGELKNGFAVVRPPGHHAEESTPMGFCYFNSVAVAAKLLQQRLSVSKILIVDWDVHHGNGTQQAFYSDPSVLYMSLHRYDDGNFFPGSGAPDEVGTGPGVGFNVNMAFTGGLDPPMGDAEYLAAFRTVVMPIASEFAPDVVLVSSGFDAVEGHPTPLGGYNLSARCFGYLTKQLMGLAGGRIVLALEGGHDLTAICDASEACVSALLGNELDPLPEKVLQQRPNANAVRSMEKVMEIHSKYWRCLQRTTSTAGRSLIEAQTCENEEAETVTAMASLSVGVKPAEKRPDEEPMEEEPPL
In assay [6] the target is T2, Protein deacetylase HDAC6 (Homo sapiens) (UniProt Q9UBN7).
T2 sequence (whole entry): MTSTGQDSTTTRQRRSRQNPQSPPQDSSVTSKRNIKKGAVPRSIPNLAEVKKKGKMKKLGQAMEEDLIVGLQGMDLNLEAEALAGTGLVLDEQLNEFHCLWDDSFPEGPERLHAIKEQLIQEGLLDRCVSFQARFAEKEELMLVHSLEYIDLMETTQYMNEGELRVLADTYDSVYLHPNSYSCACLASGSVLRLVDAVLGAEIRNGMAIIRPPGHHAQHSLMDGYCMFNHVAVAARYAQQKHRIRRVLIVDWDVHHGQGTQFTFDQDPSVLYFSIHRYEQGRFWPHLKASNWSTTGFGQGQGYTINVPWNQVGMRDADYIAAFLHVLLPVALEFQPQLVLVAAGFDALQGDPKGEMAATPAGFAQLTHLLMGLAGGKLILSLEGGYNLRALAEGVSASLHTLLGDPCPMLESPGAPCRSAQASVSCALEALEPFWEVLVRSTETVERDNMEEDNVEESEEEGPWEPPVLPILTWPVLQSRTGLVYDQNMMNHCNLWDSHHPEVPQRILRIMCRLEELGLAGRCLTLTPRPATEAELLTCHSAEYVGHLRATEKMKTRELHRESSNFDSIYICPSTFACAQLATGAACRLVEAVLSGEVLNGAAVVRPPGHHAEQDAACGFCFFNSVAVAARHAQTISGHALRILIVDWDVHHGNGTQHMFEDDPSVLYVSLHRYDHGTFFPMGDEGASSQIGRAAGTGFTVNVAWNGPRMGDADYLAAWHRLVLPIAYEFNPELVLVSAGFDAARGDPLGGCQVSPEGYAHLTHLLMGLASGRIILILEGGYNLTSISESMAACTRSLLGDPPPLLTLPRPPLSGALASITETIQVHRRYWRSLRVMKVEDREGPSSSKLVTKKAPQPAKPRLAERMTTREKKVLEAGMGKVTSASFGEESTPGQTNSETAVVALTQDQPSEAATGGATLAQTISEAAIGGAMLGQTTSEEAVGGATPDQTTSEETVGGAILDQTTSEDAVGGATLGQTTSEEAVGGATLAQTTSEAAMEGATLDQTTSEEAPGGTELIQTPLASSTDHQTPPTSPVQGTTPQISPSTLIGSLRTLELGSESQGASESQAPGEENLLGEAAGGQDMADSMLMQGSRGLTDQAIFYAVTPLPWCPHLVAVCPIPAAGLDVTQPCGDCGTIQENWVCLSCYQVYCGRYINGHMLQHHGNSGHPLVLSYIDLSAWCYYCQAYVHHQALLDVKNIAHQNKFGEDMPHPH
In words: Inhibition of HDAC6 using Fluor-de-Lys as substrate at 100 uM by spectrofluorometry.

Assay [7] concerns the target T3, Polyamine deacetylase HDAC10 (Homo sapiens) (UniProt Q969S8).
T3 sequence (whole entry): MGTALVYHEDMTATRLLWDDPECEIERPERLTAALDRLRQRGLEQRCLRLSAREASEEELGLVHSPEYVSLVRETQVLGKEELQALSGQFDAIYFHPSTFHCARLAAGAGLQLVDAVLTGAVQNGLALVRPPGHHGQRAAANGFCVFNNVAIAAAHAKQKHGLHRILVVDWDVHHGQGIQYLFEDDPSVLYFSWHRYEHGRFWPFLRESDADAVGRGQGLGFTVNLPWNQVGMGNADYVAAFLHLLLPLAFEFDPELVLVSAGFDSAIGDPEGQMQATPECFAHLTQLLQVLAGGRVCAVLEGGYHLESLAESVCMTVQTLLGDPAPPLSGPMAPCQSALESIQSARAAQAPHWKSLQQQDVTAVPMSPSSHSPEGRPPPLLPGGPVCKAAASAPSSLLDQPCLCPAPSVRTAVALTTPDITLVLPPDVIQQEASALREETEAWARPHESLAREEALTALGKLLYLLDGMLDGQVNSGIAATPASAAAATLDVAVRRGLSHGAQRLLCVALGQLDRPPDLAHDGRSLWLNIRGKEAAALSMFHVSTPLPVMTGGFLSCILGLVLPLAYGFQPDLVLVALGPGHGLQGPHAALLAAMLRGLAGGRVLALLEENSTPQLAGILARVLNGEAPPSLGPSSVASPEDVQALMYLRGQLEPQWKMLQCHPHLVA
The assay is described as follows: Inhibition of HDAC10 using Fluor-de-Lys as substrate at 100 uM by spectrofluorometry.

Assay [8] has as its target T4, Histone deacetylase 11 (Homo sapiens) (UniProt Q96DB2).
T4 sequence (whole entry): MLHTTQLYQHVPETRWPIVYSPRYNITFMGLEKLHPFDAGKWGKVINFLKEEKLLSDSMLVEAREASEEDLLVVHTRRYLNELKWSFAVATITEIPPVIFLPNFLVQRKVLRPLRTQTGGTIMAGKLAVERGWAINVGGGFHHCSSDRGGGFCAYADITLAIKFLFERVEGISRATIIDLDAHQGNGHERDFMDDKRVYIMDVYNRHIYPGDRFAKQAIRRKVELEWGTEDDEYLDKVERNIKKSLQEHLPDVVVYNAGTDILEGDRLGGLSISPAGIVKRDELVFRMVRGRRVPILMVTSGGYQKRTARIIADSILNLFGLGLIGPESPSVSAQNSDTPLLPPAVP
The assay is described as follows: Inhibition of HDAC11 using Fluor-de-Lys as substrate at 100 uM by spectrofluorometry.

For assay [9], the target named is Histone deacetylase 1 (Homo sapiens) (UniProt Q13547). In words: Activation of HDAC1 using Fluor-de-Lys as substrate at 100 uM by spectrofluorometry.
The target of assay [10] is Histone deacetylase 4 (Homo sapiens) (UniProt P56524). The assay is described as follows: Activation of HDAC4 using trifluoroacetyl-lysine containing fluorogenic substrate at 100 uM by spectrofluorometry.
The target in assay [11] is T2, Protein deacetylase HDAC6 (Homo sapiens). The assay is described as follows: Activation of HDAC6 using Fluor-de-Lys as substrate at 100 uM by spectrofluorometry.
In assay [12] the target is T3, Polyamine deacetylase HDAC10 (Homo sapiens). The assay is described as follows: Activation of HDAC10 using Fluor-de-Lys as substrate at 100 uM by spectrofluorometry.
The target in assay [13] is T4, Histone deacetylase 11 (Homo sapiens). In words: Activation of HDAC11 using Fluor-de-Lys as substrate at 100 uM by spectrofluorometry.
In assay [14] the target is Histone deacetylase 1 (Homo sapiens) (UniProt Q13547). The assay is described as follows: Activation of HDAC1 using Fluor-de-Lys as substrate at 10 uM by spectrofluorometry.
The target of assay [15] is Histone deacetylase 4 (Homo sapiens) (UniProt P56524). In words: Activation of HDAC4 using trifluoroacetyl-lysine containing fluorogenic substrate at 10 uM by spectrofluorometry.
Assay [16] concerns the target T2, Protein deacetylase HDAC6 (Homo sapiens). In words: Activation of HDAC6 using Fluor-de-Lys as substrate at 10 uM by spectrofluorometry.
For assay [17], the target named is T3, Polyamine deacetylase HDAC10 (Homo sapiens). The assay is described as follows: Activation of HDAC10 using Fluor-de-Lys as substrate at 10 uM by spectrofluorometry.
The target in assay [18] is T4, Histone deacetylase 11 (Homo sapiens). In words: Activation of HDAC11 using Fluor-de-Lys as substrate at 10 uM by spectrofluorometry.
Assay [19] concerns the target Histone deacetylase 2 (Homo sapiens) (UniProt Q92769). The assay is described as follows: Activation of HDAC2 using Fluor-de-Lys as substrate at 100 uM by spectrofluorometry.
The target in assay [20] is Histone deacetylase 3 (Homo sapiens) (UniProt O15379). The assay is described as follows: Activation of HDAC3 using Fluor-de-Lys as substrate at 100 uM by spectrofluorometry.
For assay [21], the target named is Histone deacetylase 2 (Homo sapiens) (UniProt Q92769). In words: Activation of HDAC2 using Fluor-de-Lys as substrate at 10 uM by spectrofluorometry.
Chain of Histone deacetylase 2 (Homo sapiens) (Q92769 whole entry): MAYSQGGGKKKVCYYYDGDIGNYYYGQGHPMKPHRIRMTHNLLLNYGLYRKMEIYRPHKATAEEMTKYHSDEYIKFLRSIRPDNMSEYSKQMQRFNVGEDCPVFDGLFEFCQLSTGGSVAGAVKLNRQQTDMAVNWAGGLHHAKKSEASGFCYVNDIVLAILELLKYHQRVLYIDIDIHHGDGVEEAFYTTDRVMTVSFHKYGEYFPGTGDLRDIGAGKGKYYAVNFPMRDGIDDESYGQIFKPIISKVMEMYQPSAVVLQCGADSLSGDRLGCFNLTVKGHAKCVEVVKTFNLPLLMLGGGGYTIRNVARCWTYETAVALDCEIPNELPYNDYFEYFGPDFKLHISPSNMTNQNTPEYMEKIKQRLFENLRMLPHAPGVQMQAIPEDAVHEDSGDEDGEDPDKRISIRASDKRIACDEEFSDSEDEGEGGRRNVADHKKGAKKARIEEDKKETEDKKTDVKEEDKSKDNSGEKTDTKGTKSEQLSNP
The target in assay [22] is Histone deacetylase 3 (Homo sapiens) (UniProt O15379). In words: Activation of HDAC3 using Fluor-de-Lys as substrate at 10 uM by spectrofluorometry.

With `O=C(NC(=S)NCc1ccc(C(F)(F)F)cc1)c1ccccc1`, in assay [1], the fold change (FC) was 1.2. Also, the inhibition result in assay [2], in assay [5], in assay [6], in assay [7] and in assay [8] was “inactive” throughout. Further, the inhibition in [3] stood at 7%; in assay [4], 5%. The outcome in assay [9], in [10], in assay [11], in assay [12], in assay [13] and in assay [14] was inactive. The result in assay [15], in [16], in [17] and in assay [18] was inactive.

With `O=C(NC(=S)NCc1ccc(F)cc1)c1ccccc1`, the fold change (FC) in assay [1] was 3. Besides, the inhibition in [2] amounted to 5%; in assay [8] it was 6%. Further, the inhibition entry in assay [3], in assay [4], in [5], in [6] and in assay [7] was “inactive” each time. Also, the outcome in assay [19], in [20], in [10], in assay [11], in [12] and in [21] was inactive. In addition, the result in [22], in assay [15], in [16] and in [17] was inactive.

As for `O=C(NC(=S)NCCc1ccccc1)c1ccccc1`, in assay [1], the fold change (FC) came to 2. Besides, the inhibition entry in assay [2], in assay [3], in [4], in assay [5], in [6] and in [7] was “inactive” each time. The same molecule returned an inhibition in assay [8] of 6%. In addition, the result in assay [9], in assay [19], in [20], in [10], in [11] and in assay [12] was inactive. Also, the result in assay [14], in [21], in assay [22], in assay [15], in assay [16] and in assay [17] was inactive.

As to `O=C(NC(=S)NCc1ccccc1)c1ccccc1`, the fold change (FC) in assay [1] was 3.3. The molecule further returned an inhibition in assay [2] of 5%. For the same molecule, the inhibition result in assay [3], in assay [4], in assay [5], in [6], in [7] and in assay [8] was “inactive” each time. Further, the result in assay [19], in assay [20], in assay [10], in [11], in assay [12] and in [13] was inactive. Besides, the result in assay [21], in assay [22], in assay [15], in assay [16], in [17] and in [18] was inactive.

Consider `O=C(NC(=S)NCc1ccccc1)c1ccccc1F`, for which the fold change (FC) in assay [1] was 1. Besides, the inhibition result in [2], in [3], in assay [4], in assay [5] and in assay [6] was “inactive” in each case. Moreover, the values for the inhibition in assay [7] and in [8] were 5% and 14%, respectively. Besides, the result in [9], in assay [19], in assay [20], in [10], in [11] and in assay [14] was inactive. Besides, the result in [21], in [22], in [15] and in [16] was inactive.
